In US20250152576A1, “INJECTABLE FORMULATION COMPRISING ISOXAZOLINE DERIVATIVE AND METHOD FOR PREPARING SAME” (LG CHEM, LTD., priority 2022, published 2025):

Assays:
[1] = Solubility of compound of Formula 1 in water and solvents of various compositions; type: physicochemical
Text: Further, it was confirmed that the compound of Formula 1 has the property of reducing the pH of a solution while being dissolved in a solvent.

[2] = Change in API purity during preparation of freeze-drying formulation, UPLC; type: physicochemical; conditions: API powder before dissolving in the solvent composition
Method: A final API freeze-drying formulation was prepared as described in Table 16 below.
In order to confirm the change in purity of the API during the preparation of the final API freeze-drying formulation, the purity of the API powder before dissolving in the solvent composition, and the API purity during the preparation of the API mixture solution and after freeze-drying were measured using UPLC.

- solubility in acidic solvents ([1]; acidic solvents of pH 4 or less containing phosphate buffer, solubilizing agent and pH adjusting agent): hardly soluble
- solubility in water ([1]; water): poorly soluble in water
- solubility in weak acidic and basic solvents ([1]; weak acidic solvents of pH 6 or more and basic solvents of pH 7.5 or more): dissolved well
- Purity (%) [2]: 98.6%
Compound: CC(C)[C@@]1(C(=O)N[C@H]2CC(=O)O[C@]2(O)CF)CC(c2nccc3ccccc23)=NO1 [Compound of Formula 1, (R)-N-((2S,3S)-2-(fluoromethyl)-2-hydroxy-5-oxotetrahydrofuran-3-yl)-5-isopropyl-3-(isoquinolin-1-yl)-4,5-dihydroisoxazol-5-carboxamide]
